pIC50: −log10 of the molar value.
Columns and labels:
Format in all cases: biochemical
[1] = target: T1, S6K (Homo sapiens, UniProt P23443); assay: recombinant in vitro kinase assay
T1 construct: gene RPS6KB1; recombinant S6K

[2] = target: T2, SGK3 (Homo sapiens, UniProt Q96BR1); assay: in vitro kinase assay
T2 sequence (Q96BR1 1-496): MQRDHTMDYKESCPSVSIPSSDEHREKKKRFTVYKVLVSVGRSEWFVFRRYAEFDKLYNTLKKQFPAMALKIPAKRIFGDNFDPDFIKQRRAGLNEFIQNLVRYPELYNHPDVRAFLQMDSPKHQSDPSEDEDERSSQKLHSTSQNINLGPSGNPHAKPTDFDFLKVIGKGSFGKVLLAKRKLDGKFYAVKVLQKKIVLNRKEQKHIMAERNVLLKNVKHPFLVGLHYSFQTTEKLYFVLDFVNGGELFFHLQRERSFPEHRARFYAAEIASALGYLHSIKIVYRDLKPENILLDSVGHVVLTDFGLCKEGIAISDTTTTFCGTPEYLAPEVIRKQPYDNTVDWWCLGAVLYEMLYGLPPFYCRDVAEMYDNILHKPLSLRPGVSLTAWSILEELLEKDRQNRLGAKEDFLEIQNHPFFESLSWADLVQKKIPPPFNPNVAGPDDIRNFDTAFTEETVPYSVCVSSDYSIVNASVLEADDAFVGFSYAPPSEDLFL

[3] = target: T3, SGK2 (Homo sapiens, UniProt Q9HBY8); assay: in vitro kinase assay
T3 sequence (Q9HBY8 1-367): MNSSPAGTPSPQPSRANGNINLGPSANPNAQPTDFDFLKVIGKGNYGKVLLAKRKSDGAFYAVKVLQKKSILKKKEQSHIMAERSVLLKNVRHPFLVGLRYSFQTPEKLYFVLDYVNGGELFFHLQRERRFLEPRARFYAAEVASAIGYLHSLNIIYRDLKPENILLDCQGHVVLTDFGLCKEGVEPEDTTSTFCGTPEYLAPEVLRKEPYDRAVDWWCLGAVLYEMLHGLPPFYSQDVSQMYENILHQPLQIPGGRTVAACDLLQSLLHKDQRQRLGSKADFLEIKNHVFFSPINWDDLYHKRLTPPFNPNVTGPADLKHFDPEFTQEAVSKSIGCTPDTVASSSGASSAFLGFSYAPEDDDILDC

T1 sequence (P23443 whole entry): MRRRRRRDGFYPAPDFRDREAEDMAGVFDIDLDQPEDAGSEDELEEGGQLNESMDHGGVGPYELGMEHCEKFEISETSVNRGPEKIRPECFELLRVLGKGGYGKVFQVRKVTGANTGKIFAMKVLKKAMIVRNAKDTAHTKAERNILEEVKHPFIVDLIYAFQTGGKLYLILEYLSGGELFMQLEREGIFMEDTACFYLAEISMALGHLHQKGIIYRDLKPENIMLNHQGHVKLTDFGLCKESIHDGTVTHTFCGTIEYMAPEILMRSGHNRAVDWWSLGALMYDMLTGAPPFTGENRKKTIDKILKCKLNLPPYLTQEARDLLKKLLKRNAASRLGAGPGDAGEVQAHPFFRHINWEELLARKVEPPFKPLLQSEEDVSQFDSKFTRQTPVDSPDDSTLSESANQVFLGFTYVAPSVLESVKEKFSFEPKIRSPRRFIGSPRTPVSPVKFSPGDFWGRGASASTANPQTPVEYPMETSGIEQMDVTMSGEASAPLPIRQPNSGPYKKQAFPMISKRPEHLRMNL

pIC50 [1]: 7.48
pIC50 [2]: 6.23
pIC50 [3]: 8.55
SMILES: Nc1n[nH]c2nc(-c3ccc(NS(=O)(=O)c4cccc(Cl)c4Cl)cc3)cnc12 [SGK1-inh]
